# Assay results as given in US20070287699A1, “ANTIVIRAL AGENTS” (ViroBay, Inc., priority 2006, published 2007).
# Like-named read-outs stand apart in the source and are kept apart here.
# Test system: HCV replicon RNA replication in human Huh7 hepatoma cells
# Assay: HCV replicon assay (activity levels from either or both of HCV replicon assay 1, Huh7/Clone A RT-qPCR, and assay 2, Huh7 ET luc-ubi-neo/ET)
# Type: cell-based, Hepatitis C virus (HCV)
# Conditions: 48 hours, 72 hours, Luc activity or RT-PCR, read-out: inhibit HCV replication at IC50 levels or estimated IC50 levels
# Excerpt: The HCV replicon assay is a cell-culture system that mimics in vivo HCV replication and provides a system to study HCV replication in vitro. It was created by transfecting cloned viral RNA derived from a consensus HCV genomic sequence into human Huh7 hepatoma cells that are semi-permissive for viral RNA production (Lohmann V., Korner F., Koch J.-O., Herian U., Theilmann L. and Bartenschlager R. (1999). Replication of subgenomic Hepatitis C virus RNAs in a hepatoma cell line. Science 285, 110-113 and Blight K. J., Kolykhalov A. A. and Rice C. M. (2000). Efficient initiation of HCV RNA Replication in cell culture. Science 290, […]). These transfected cell lines contain a subgenomic HCV RNA genome that includes (1) the HCV 5′NTR fused to 12 amino acids of the capsid coding region, (2) the neomycin phosphotransferase gene (Neo) as a selectable marker, (3) the internal ribosome entry site (IRES) from encephalomyocarditis virus (EMCV) that directs translation of HCV non-structural proteins (variously NS2 or NS3 to NS5B), and (4) the 3′ NTR. Replicon-containing cells autonomously and persistently replicate HCV RNA that can be measured quantitatively by real-time qPCR. Therefore, the replicon system facilitates quantitative assessment of anti-viral activity by monitoring changes in HCV RNA replication in a cell-based assay.
# HCV replicon-containing cells (Huh7/Clone A) were routinely maintained in Clone A growth medium (DMEM medium [Invitrogen], supplemented with 10% Fetal Bovine Serum, 1% Non Essential Amino Acids and 1 g/L G418). Test compounds were dissolved in dimethyl sulfoxide (DMSO) to make 200× stock solutions for all doses prior to treatment.
# For the HCV replicon assay, Huh7/Clone A cells were trypsinized from culture flasks, seeded in 1 ml of Clone A growth medium without G418 at 4×10^4 cells per well in 24-well plates and incubated at 37° C. in a humidified CO2 (5%) incubator overnight. Following overnight incubation, compound solutions were added into wells in the same volume (5 μl of 200× compound stock per well) to give a final DMSO concentration of 0.5%. Three wells on each plate supplemented with 5 μl of DMSO served as untreated controls. For IC50 determinations, compounds were tested at 7 serial dilutions in triplicates from the starting stock solutions. The plates were incubated at 37° C. for 48 hours. After incubation, cells were harvested, transferred to 96-well plates, and subjected to total RNA extraction using the RNA Isolation Kit (RNeasy 96, Qiagen) according to the protocol described by the manufacture's RNeasy 96 Handbook (Qiagen).
# Total RNA eluted in 130 μl of RNase-free dH2O was quantitated by the RiboGreen Assay according to the supplier's protocol (Molecular Probe). Briefly, 5 μl of RNA samples were aliquoted in duplicate to a 96-well black microplate and a 96-well TaqMan Optical plate. RNA samples in the black microplate were mixed with 95 μl of diluted RiboGreen:reagent (1:250 dilution in TE buffer) and sample fluorescence was measured using a fluorescence microplate reader at standard fluorescein wavelengths (excitation ˜480 nm, emission ˜520 nm). Ribosomal RNA (Molecular Probe) was used as standard.
# TaqMan quantitative PCR (RT-qPCR) was used to quantitate the amount of HCV replicon RNA in each sample. The RT-qPCR reactions were performed in 25 μl on an ABI PRISM 7900 HT Sequence Detection System (Applied Biosystems). The reaction mixture contained 5 μl of total RNA (10-100 ng), 1× TaqMan Buffer A (Applied Biosystems), 5.5 mM MgCl2, 1.2 mM dNTP mix, 0.625 U of AmpliTaq Gold (Applied Biosystems), 5 U of MMLV reverse transcriptase (Promega), 5 U of rRNasin (Promega), 300 nM each of the forward and reverse primers, and 100 nM TaqMan MGB probe. Primers and probe were designed to hybridize to a portion of the neomycin resistance gene (neo) in the replicon and the sequences are as follows: forward primer 5′-GGCTACCTGCCCATTCGA-3′; reverse primer 5′-CCGGCTTCCATCCGAGTAC-3′; MGB probe 5′-CCACCAAGCGAAACA-3′. […]
# [1] = Hepatitis C virus, Huh-7, either or both HCV replicon assays: Huh7/Clone A
Structure (SMILES),IC50 [1] [µM],IC50 (either or both HCV replicon assays: Huh7/Clone A) [µM]
"COc1cc2c(=O)c(-c3noc(Cc4ccccc4)n3)cn(Cc3ccc(Cl)cc3)c2cc1OC [Compound 1, 3-(5-Benzyl-[1,2,4]oxadiazol-3-yl)-1-(4-chloro-benzyl)-6,7-dimethoxy-1H-quinolin-4-one]",> 10,–
"COc1cc2c(=O)c(-c3noc(C4(c5ccccc5)CC4)n3)cn(Cc3ccc(Cl)cc3)c2cc1OC [Compound 2, 1-(4-chloro-benzyl)-6,7-dimethoxy-3-[5-(1-phenyl-cyclopropyl)-[1,2,4]oxadiazol-3-yl]-1H-quinolin-4-one]",> 10,–
"COc1cc2c(=O)c(-c3noc(Cc4ccccn4)n3)cn(Cc3ccc(Cl)cc3)c2cc1OC [Compound 3, 1-(4-chloro-benzyl)-6,7-dimethoxy-3-(5-pyridin-2-ylmethyl-[1,2,4]oxadiazol-3-yl)-1H-quinolin-4-one]",> 10,–
"COc1cc2c(=O)c(-c3noc(Cc4ccc(C)cc4)n3)cn(Cc3ccc(Cl)cc3)c2cc1OC [Compound 4, 1-(4-chloro-benzyl)-6,7-dimethoxy-3-[5-(4-methyl-benzyl)-[1,2,4]oxadiazol-3-yl]-1H-quinolin-4-one]",> 10,–
"COc1cc2c(=O)c(-c3noc(CC4CCCCC4)n3)cn(Cc3ccc(Cl)cc3)c2cc1OC [Compound 5, 1-(4-chloro-benzyl)-3-(5-cyclohexylmethyl-[1,2,4]oxadiazol-3-yl)-6,7-dimethoxy-1H-quinolin-4-one]",> 10,–
"COc1cc2c(=O)c(-c3noc(Cc4ccsc4)n3)cn(Cc3ccc(Cl)cc3)c2cc1OC [Compound 6, 1-(4-chloro-benzyl)-6,7-dimethoxy-3-(5-thiophen-3-ylmethyl-[1,2,4]oxadiazol-3-yl)-1H-quinolin-4-one]",< 10,–
"COc1cc2c(=O)c(-c3noc(CC4CCCC4)n3)cn(Cc3ccc(Cl)cc3)c2cc1OC [Compound 7, 1-(4-chloro-benzyl)-3-(5-cyclopentylmethyl-[1,2,4]oxadiazol-3-yl)-6,7-dimethoxy-1H-quinolin-4-one]",> 10,–
"CN1CCN(c2cc3c(cc2F)c(=O)c(-c2noc(Cc4ccccc4)n2)cn3Cc2ccc(Cl)cc2)CC1 [Compound 8, 3-(5-benzyl-[1,2,4]oxadiazol-3-yl)-1-(4-chloro-benzyl)-6-fluoro-7-(4-methyl-piperazin-1-yl)-1H-quinolin-4-one]",< 2,–
"CN1CCN(c2cc3c(cc2F)c(=O)c(-c2noc(Cc4ccccc4)n2)cn3CC2CCCCC2)CC1 [Compound 9, 3-(5-benzyl-[1,2,4]oxadiazol-3-yl)-1-cyclohexylmethyl-6-fluoro-7-(4-methyl-piperazin-1-yl)-1H-quinolin-4-one]",< 2,–
"COc1ccc2c(c1)c(=O)c(-c1noc(Cc3ccccc3)n1)cn2CC1CCCCC1 [Compound 10, 3-(5-benzyl-[1,2,4]oxadiazol-3-yl)-1-cyclohexylmethyl-6-methoxy-1H-quinolin-4-one]",> 10,–
"COc1ccc2c(c1)c(=O)c(-c1noc(Cc3ccccc3)n1)cn2Cc1ccc(Cl)cc1 [Compound 11, 3-(5-benzyl-[1,2,4]oxadiazol-3-yl)-1-(4-chloro-benzyl)-6-methoxy-1H-quinolin-4-one]",> 10,–
"O=c1c(-c2noc(Cc3ccccc3)n2)cn(Cc2ccc(Cl)cc2)c2ccc(O)cc12 [Compound 12, 3-(5-benzyl-[1,2,4]oxadiazol-3-yl)-1-(4-chloro-benzyl)-6-hydroxy-1H-quinolin-4-one]",< 10,–
"CC(C)Cc1nc(-c2cn(CC3CCCCC3)c3cc(N4CCN(C)CC4)c(F)cc3c2=O)no1 [Compound 13, 1-cyclohexylmethyl-6-fluoro-3-(5-isobutyl-[1,2,4]oxadiazol-3-yl)-7-(4-methyl-piperazin-1-yl)-1H-quinolin-4-one]",> 10,–
"CN1CCN(c2cc3c(cc2F)c(=O)c(-c2noc(CC4CC4)n2)cn3CC2CCCCC2)CC1 [Compound 14, 1-cyclohexylmethyl-3-(5-cyclopropylmethyl-[1,2,4]oxadiazol-3-yl)-6-fluoro-7-(4-methyl-piperazin-1-yl)-1H-quinolin-4-one]",< 10,–
"CN1CCN(c2cc3c(cc2F)c(=O)c(-c2noc(CC4CCCC4)n2)cn3CC2CCCCC2)CC1 [Compound 15, 1-cyclohexylmethyl-3-(5-cyclopentylmethyl-[1,2,4]oxadiazol-3-yl)-6-fluoro-7-(4-methyl-piperazin-1-yl)-1H-quinolin-4-one]",< 10,–
"CN1CCN(c2cc3c(cc2F)c(=O)c(-c2noc(Cc4ccccc4)n2)cn3Cc2ccc(C(F)(F)F)cc2F)CC1 [Compound 16, 3-(5-benzyl-[1,2,4]oxadiazol-3-yl)-6-fluoro-1-(2-fluoro-4-trifluoromethyl-benzyl)-7-(4-methyl-piperazin-1-yl)-1H-quinolin-4-one]",–,< 0.5
"CN1CCN(c2cc3c(cc2F)c(=O)c(-c2noc(CC4CCCC4)n2)cn3Cc2ccc(C(F)(F)F)cc2F)CC1 [Compound 17, 3-(5-cyclopentylmethyl-[1,2,4]oxadiazol-3-yl)-6-fluoro-1-(2-fluoro-4-trifluoromethyl-benzyl)-7-(4-methyl-piperazin-1-yl)-1H-quinolin-4-one]",< 2,–
"Cc1cccc(Cc2nc(-c3cn(CC4CCCCC4)c4cc(N5CCN(C)CC5)c(F)cc4c3=O)no2)c1 [Compound 19, 1-cyclohexylmethyl-6-fluoro-3-[5-(3-methyl-benzyl)-[1,2,4]oxadiazol-3-yl]-7-(4-methyl-piperazin-1-yl)-1H-quinolin-4-one]",< 10,–
"Cc1ccccc1Cc1nc(-c2cn(CC3CCCCC3)c3cc(N4CCN(C)CC4)c(F)cc3c2=O)no1 [Compound 20, 1-cyclohexylmethyl-6-fluoro-3-[5-(2-methyl-benzyl)-[1,2,4]oxadiazol-3-yl]-7-(4-methyl-piperazin-1-yl)-1H-quinolin-4-one]",< 10,–
"CN1CCN(c2cc3c(cc2F)c(=O)c(-c2noc(CC(C)(C)C)n2)cn3Cc2ccc(Cl)cc2)CC1 [Compound 21, 1-(4-chloro-benzyl)-3-[5-(2,2-dimethyl-propyl)-[1,2,4]oxadiazol-3-yl]-6-fluoro-7-(4-methyl-piperazin-1-yl)-1H-quinolin-4-one]",> 10,–
"CN1CCN(c2cc3c(cc2F)c(=O)c(-c2noc(Cc4ccccc4CC(=O)O)n2)cn3Cc2ccc(Cl)cc2)CC1 [Compound 22, (2-{3-[1-(4-chloro-benzyl)-6-fluoro-7-(4-methyl-piperazin-1-yl)-4-oxo-1,4-dihydro-quinolin-3-yl]-[1,2,4]oxadiazol-5-ylmethyl}-phenyl)-acetic acid]",> 10,–
"CN1CCN(c2cc3c(cc2F)c(=O)c(-c2noc(Cc4ccc(F)cc4)n2)cn3Cc2ccc(C(F)(F)F)cc2F)CC1 [Compound 23, 6-fluoro-3-[5-(4-fluoro-benzyl)-[1,2,4]oxadiazol-3-yl]-1-(2-fluoro-4-trifluoromethyl-benzyl)-7-(4-methyl-piperazin-1-yl)-1H-quinolin-4-one]",< 2,–
"O=c1c(-c2noc(Cc3ccccc3)n2)cn(CC2CCCCC2)c2ccc(O)cc12 [Compound 24, 3-(5-benzyl-[1,2,4]oxadiazol-3-yl)-1-cyclohexylmethyl-6-hydroxy-1H-quinolin-4-one]",> 10,–
